Experimental data as given in paper PMC12163635, “Synthetic Retinoids for the Modulation of Genomic and Nongenomic Processes in Neurodegenerative Diseases” (ACS Omega, 2025).
Read-outs that look alike come from different tables or passages of the source.

How the values were obtained:
[1] = tested on: ERK1/2 phosphorylation in SH-SY5Y cells; experiment: ERK1/2 phosphorylation (nongenomic response), AlphaScreen SureFire; assay type: cell-based, human; design: nongenomic response Emax (±95% CI): unit not given here; conditions: for EC50: Homo sapiens, read-out: nongenomic response EC50 (±95% CI); for nongenomic E max compared with ATRA: nonoverlapping 95% CI
Description: After screening the retinoids for genomic responses, they were tested for their nongenomic ability to rapidly phosphorylate ERK1/2 in the SH-SY5Y cell line. ATRA is known as a potent activator of ERK1/2 − and was used as the standard for comparison. […] The efficacies of the remaining seven retinoids were similar to ATRA.
(§1) SH-SY5Y cell line as used in ERK phosphorylation and neurite outgrowth assays described below. The cells were grown in DMEM containing 10% FCS at 37 °C with 5% CO2. The medium was changed three times a week and the cells were passaged at 70% confluence using 0.05% trypsin-EDTA.
To quantify ERK1/2 phosphorylation, SH-SY5Y cells (100,000 cells/well) were plated onto 96-well plates and serum-starved for 24 h in DMEM. Cells were assayed in serum-free DMEM and stimulated for 60 min at 37 °C in a humidified atmosphere. Retinoids were tested at concentrations ranging from 10 to 4 to 10–11 M and at a final concentration of 0.1% DMSO. At the end of the assay, the medium was removed, and cells were lysed with lysis buffer supplied in the AlphaScreen SureFire ERK1/2 kit (PerkinElmer). The assay was performed in 384-well white Proxiplates according to the manufacturer’s instructions and using the beads supplied in the protein A general IgG detection kit (PerkinElmer). Briefly, 4 μL samples were incubated with 7 μL of the freshly prepared mixture containing donor and acceptor beads. Plates were incubated at room temperature and read with the Envision system (PerkinElmer Life Sciences) using AlphaScreen settings.
(§2) All data are presented as mean ± SEM of three independent experiments with biological triplicates. Statistical analyses were performed in Microsoft Office Excel 2019 or GraphPad Prism 7.0c version (Prism, GraphPad Software, San Diego, CA). Neurite outgrowth data were analyzed by one-way ANOVA with Newman-Keuls multiple comparison test as appropriate; P value <0.05 was considered statistically significant. *P < 0.05, **P < 0.01. Data for X-Gal and ERK1/2 phosphorylation were analyzed using sigmoidal dose–response analysis of log (agonist) versus response curve (stimulation).

[2] = tested on: Sil-15 cells containing a RARE driving a lacZ reporter; experiment: X-Gal-based RA reporter assay (genomic response); assay type: cell-based; design: genomic response Emax (±95% CI): unit not given here; conditions: for genomic response Emax (±95% CI) / EC50: Sil-15 reporter cells; for genomic response Emax (±95% CI): absorbance at 650 nm; for genomic EC50 compared with ATRA / genomic E max compared with ATRA: nonoverlapping 95% CI; for EC50: read-out: genomic response EC50 (±95% CI), overnight, 10^–6 to 10^–14 M
From the text: Following chemical design and synthesis, the synthetic retinoid library was screened for genomic and nongenomic biological activities and compared to the response of the endogenous retinoid, ATRA. In these assays, the EC50 value represented the concentration of retinoid that gave half-maximal response (potency), while the E max value represented the maximum response achievable from the retinoid (efficacy).
The transcriptional genomic activity of the retinoids was quantified using Sil-15 cells containing a RARE driving a lacZ reporter. […] Twenty-two of the synthetic retinoids were effective in inducing genomic activity. […] In addition, the retinoids varied in their efficacies.
The Sil-15 cell line was used in the X-gal RA reporter assay described below. The cells were grown in Dulbecco’s modified Eagle’s medium (DMEM) containing 10% fetal bovine serum (FCS) (Invitrogen/Gibco), 0.6% penicillin-streptomycin (Gibco) and 0.8 mg/mL G418 sulfate (Sigma) for selection. They were maintained in a humidified atmosphere containing 5% CO2 at 37 °C. The medium was changed three times a week and the cells were passaged at 70% confluence using 0.05% trypsin-EDTA.
Sil-15 cells are F9 teratocarcinoma cells stably transfected with a plasmid containing the LacZ gene under the control of a DR5-type RA response element (RARE). The reporter cell line was used to detect the transcriptional genomic activity of ATRA and other retinoids by colorimetrically quantifying the insoluble blue product generated by β-galactosidase from X-gal during the assay. The assay was performed by plating 100,000 cells per well in the 0.1% gelatin-coated 96-well plates and leaving them to attach overnight. The ATRA/retinoids dilutions ranging from 10^–6 to 10^–14 M were incubated on the reporter cells overnight at 37 °C, in 5% CO2. A standard curve of ATRA was included in each experiment to ensure the reproducibility of the results between assays performed on different days. All the assays for ATRA as well as the retinoids were quantified in triplicate. Serial dilutions of retinoids were prepared from a stock solution under red/orange light. The stock solutions prepared in DMSO for each retinoid varied depending on the solubility of each compound. Each stock was stored at −20 °C and protected from light. The next day, Sil-15 cells were washed with PBS, fixed with 1% glutaraldehyde and 1 mM MgCl2 solution for 15 min, and developed in X-gal developing solution (0.2% X-Gal, 1 mM MgCl2, 3.3 mM potassium ferricyanide and 3.3 mM potassium ferrocyanide in PBS). The plates were read on an E max microplate reader (Molecular Devices) at 650 nm.
as §2

SH-SY5Y cells = experiment: Neurite outgrowth; assay type: cell-based, human; conditions: for induction of neurite outgrowth compared with ATRA: 10 nM; for fold induction at 0.01 µM: Homo sapiens, SH-SY5Y, 120 h, read-out: fold increase in neurite outgrowth
Description: Following the characterization of retinoids for their genomic and nongenomic activities, the ability of retinoids to differentiate and induce neurite outgrowth in the neuroblastoma cell line, SH-SY5Y cells, was examined (Figure ). Neurite outgrowth can be induced in this cell line by ATRA at 10 μM.
as §1
SH-SY5Y cells were plated at 10,000 cells/well in 12-well plates containing 16 mm acid-treated/poly L-lysine-coated glass coverslips. After 24 h, retinoids were added to the medium and tested at two different concentrations, 10 μM and 10 nM, with a final DMSO concentration of 0.01 or 0.0001%, respectively. The plates were incubated for 5 days at 5% CO2/37 °C. All retinoid concentrations were tested in triplicate. Cells were fixed using 4% paraformaldehyde and stained for β-III tubulin (1:1000; Sigma). For each neurite outgrowth experiment, 3 coverslips (in 3 wells) were used. ImageJ software with the NeuronJ plugin was used to quantify neurite outgrowth on stained cells in each of the 10 randomly selected images of each coverslip taken using a Nikon Eclipse E400 fluorescence microscope. The average neurite length was calculated for each image by dividing total neurite length by the total number of neurites per image.
as §2

[3] = 10 nM compound, 5 days, in comparison to nontreated cells

Row | SMILES | EC50 ([1]; SH-SY5Y cells, 1 h) [nM] | nongenomic response Emax (±95% CI) ([1]; SH-SY5Y cells, 1 h) | nongenomic E max compared with ATRA [1] | genomic response Emax (±95% CI) [2] | genomic EC50 compared with ATRA [2] | EC50 [2] [nM] | induction of neurite outgrowth compared with ATRA (SH-SY5Y cells; 5 days) | induction of ERK1/2 phosphorylation (nongenomic activity) ([1]; SH-SY5Y cells, 1 h) | genomic E max compared with ATRA [2] | fold induction at 0.01 µM (SH-SY5Y cells; [3]) | nongenomic response EC50 (±95% CI) ([1]; SH-SY5Y cells, 1 h) | fold induction at 0.01 µM (SH-SY5Y cells) | fold increase in neurite outgrowth (SH-SY5Y cells; [3])
1 | COc1cc2c(cc1C#Cc1ncc(C(=O)O)cn1)C(C)(C)CCC2(C)C [Compound 29, 2-[2-(3-Methoxy-5,5,8,8-tetramethyl-5,6,7,8-tetrahydronaphthalen-2-yl)ethynyl]pyrimidine-5-carboxylic Acid] | 87.4 | 37.5 (±2.12) | E max values significantly lower than ATRA | 266 (±110) | significantly higher EC50 values than ATRA | 603 | induced neurite outgrowth but not significantly compared to ATRA |  |  |  |  |  | 
2 | CC1(C)CCC(C)(C)c2nc(C#Cc3ccc(C(=O)O)cc3F)cnc21 [Compound 31, 3-Fluoro-4-[2-(5,5,8,8-tetramethyl-5,6,7,8-tetrahydroquinoxalin-2-yl)ethynyl]benzoic Acid] | 58.4 | 91.6 (±3.84) | E max values significantly higher than ATRA |  | significantly lower EC50 than ATRA | 0.382 | induced neurite outgrowth but not significantly compared to ATRA |  |  |  |  |  | 
3 | CC1(C)CCC(C)(C)c2cc(C#Cc3cc(F)c(C(=O)O)c(F)c3)ccc21 [Compound 15, 2,6-Difluoro-4-[2-(5,5,8,8-tetramethyl-5,6,7,8-tetrahydronaphthalen-2-yl)ethynyl]benzoic Acid] | 125 | 76.2 (±5.47) | E max values significantly higher than ATRA | 185 (±4.9) |  |  |  | showed activity toward the nongenomic pathway | significantly higher E max than ATRA | 1.7 |  |  | 
4 | COc1cc2c(cc1C#Cc1ccc(C(=O)O)cn1)C(C)(C)CCC2(C)C [Compound 27, 6-[2-(3-Methoxy-5,5,8,8-tetramethyl-5,6,7,8-tetrahydronaphthalen-2-yl)ethynyl]pyridine-3-carboxylic Acid] |  | no response |  | 176 (±8.55) | significantly higher EC50 values than ATRA | 3.16 |  | lacked nongenomic activity |  | 1.7 | no response |  | 
5 | Cc1cc2c(cc1C#Cc1ccc(C(=O)O)cc1F)C(C)(C)CCC2(C)C [Compound 18, 3-Fluoro-4-[2-(3,5,5,8,8-pentamethyl-5,6,7,8-tetrahydronaphthalen-2-yl)ethynyl]benzoic Acid] | 13.1 | 40.1 (±1.86) | E max values significantly lower than ATRA | 140 (±12.1) |  | 1.38 | induced neurite outgrowth but not significantly compared to ATRA |  | significantly lower E max than ATRA |  |  |  | 
6 | Cc1sc(-c2ccc(C(=O)O)cc2)nc1-c1ccc2c(c1)C(C)(C)CCC2(C)C [GZ25, reference compound] | 3.57 | 76.6 (±2.61) | E max values significantly higher than ATRA | 209 (±15.5) | significantly lower EC50 than ATRA | 0.184 | induced significant neurite outgrowth compared to ATRA |  | significantly higher E max than ATRA |  |  | 1.8 | 
7 | CC1(C)CCC(C)(C)c2cc(C#Cc3ccc(C(=O)O)nc3)ccc21 [Compound 24, 5-[2-(5,5,8,8-Tetramethyl-5,6,7,8-tetrahydronaphthalen-2-yl)ethynyl]pyridine-2-carboxylic Acid] | 13.6 | 59.7 (±3.34) |  | 207 (±19.5) |  | 0.146 | significantly induced neurite outgrowth compared to ATRA | showed activity toward the nongenomic pathway | significantly higher E max than ATRA | 2.2 |  |  | 
8 | COc1cc2c(cc1C#Cc1cc(F)c(C(=O)O)c(F)c1)C(C)(C)CCC2(C)C [Compound 22, 2,6-Difluoro-4-[2-(3-methoxy-5,5,8,8-tetramethyl-5,6,7,8-tetrahydronaphthalen-2-yl)ethynyl]benzoic Acid] | 3.37 | 71.2 (±3.9) |  | 155 (±10.6) |  | 0.146 | induced neurite outgrowth but not significantly compared to ATRA |  | significantly lower E max than ATRA |  |  |  | 
9 | Cc1cc2c(cc1C#Cc1ccc(C(=O)O)cn1)C(C)(C)CCC2(C)C [Compound 26, 6-[2-(3,5,5,8,8-Pentamethyl-5,6,7,8-tetrahydronaphthalen-2-yl)ethynyl]pyridine-3-carboxylic Acid] | 459 | 56.4 (±6.36) | E max values significantly higher than ATRA | 177 (±6.65) | significantly lower EC50 than ATRA | 0.427 | unable to induce neurite outgrowth |  |  |  |  |  | no response
